Where no end group is shown, it is not given here.
Legend:
[1] = system: SW480 cells; assay: Cell cycle analysis of SW480 cells by flow cytometry; format: cell-based, human; conditions: SPA4 10, 50 and 100 μM; over 40 h
Procedure: Cell cycle analysis: The effect of SPA4 peptide on cell cycle progression was studied by flow-cytometry. About 500,000 cells were seeded per well into 6 well plate. The cells were challenged with LPS (100 ng/ml) for 4 hours. After the completion of 4 hours LPS-challenge period, SPA4 peptide (10, 50 and 100 μM) was added to the cells. Cells were further incubated for 20 and 40 hours. Vehicle-treated cells were also included. After 20 and 40 hours of total incubation period, both adherent and non-adherent cells were collected and centrifuged at 260×g for 5 minutes. The supernatant was discarded and cell pellet was washed with DPBS (Invitrogen-Gibco, NY). The cells were fixed in 70% ice-cold ethanol on ice for 1 hour and stained with a buffer containing 200 μg/ml DNase-free RNase A (Sigma, St Louis, Mo.), 0.1% v/v Triton-X 100 and 20 μg/ml propidium iodide (Molecular Probes, Carlsbad, Calif.). The cells were incubated at 4° C. for 30 minutes in the dark, before measuring cell fluorescence using Becton Dickson FACS Calibur flow cytometer. The single cells were selected by gating out the aggregates and the percent number of cell populations in different cell cycle phases were calculated by de-convoluting the results ModFIT software (Verity software house, Topsham, Me.).

[2] = system: primary adult baboon lung DCs and fetal baboon lung DC-precursor cells; assay: Phagocytosis of pHrodo-labeled E. coli bioparticles by primary baboon lung DCs / fetal DC-precursor cells; format: cell-based
Procedure: Freshly collected lobe of the lung or whole lung samples of adult and fetal baboons were transported on ice in RPMI 1640 medium containing 2 mM glutamine, 1 mM HEPES, 10 μg/ml gentamicin, 100 U/ml penicillin, 100 μg/ml streptomycin and 10% FBS. After a mild mechanical disruption, the single cell suspension was seeded in a tissue culture flask (Nalge-Nunc International Corp, NY) at a density of 30-50×10^6 leukocytes/175 cm^2 flask in RPMI 1640 medium containing 2 mM glutamine, 1 mM HEPES, 10 μg/ml gentamicin, 100 U/ml penicillin, 100 μg/ml streptomycin and 10% FBS. The light-density DC-populations were harvested using OptiPrep cell-separation solution (density 1.32 g/ml, Accurate Chemicals, NY) (Awasthi and Cooper, 2006; Awasthi et al., 2009). The immunophenotype and basic characteristics of the lung DC-population isolated from fetal and adult baboons have been described earlier (Awasthi et al., 2009). Here, first the immunophenotype of KG-1-derived DCs and fetal baboon lung DC-precursors or adult baboon lung DCs were compared by flow cytometry. Briefly, cells were suspended in Dulbecco's phosphate buffered saline (DPBS) containing 1% FBS and 0.09% sodium azide and incubated with fluorochrome-conjugated antibodies to HLA-DP, DQ, DR, CD11c, CD40, CD80, CD86 (typical DC-markers) as described earlier.
After confirming that the fluorescence is of phagocytosed bioparticles, comprehensive experiments were performed in presence and absence of effector molecules (SP-A and TLR4-MD2 proteins). […] The fluorescence readings were taken at 550 nm excitation and 600 nm emission wavelengths using SpectraMax M2 spectrofluorometer (Molecular Devices, CA).
The phagocytosis index was calculated by subtracting the average fluorescence intensity of the reaction with bioparticles alone from the control (basal without any effector molecules) and experimental wells. Finally, the percent effect was calculated using the following formula: % effect=(Net experimental phagocytosis/Net basal phagocytosis)×100%

[3] = system: primary adult baboon lung DCs and fetal baboon lung DC-precursor cells; assay: TNF-α secretion against E. coli by baboon lung DCs (ELISA); format: cell-based
Procedure: After confirming that the fluorescence is of phagocytosed bioparticles, comprehensive experiments were performed in presence and absence of effector molecules (SP-A and TLR4-MD2 proteins). The cells were pulsed with purified, native baboon lung SP-A and recombinant human TLR4-MD2 or MD2 proteins (RnD Systems, MN) for an hour prior to phagocytosis assay with pHrodo-conjugated, heat-killed E. coli K12 bioparticles (Invitrogen-Molecular Probes, CA). MD2 protein was also included, because SP-A is known to interact with MD2, and it was questioned if MD2 can influence the immune functions of DC-population. The assay was performed in serum-free Opti-MEM medium (Invitrogen, CA), as described by the manufacturer (Invitrogen-Molecular Probes, CA). The assay mixtures were incubated for another 3 hours at 37° C. in 5% CO2 incubator. The fluorescence readings were taken at 550 nm excitation and 600 nm emission wavelengths using SpectraMax M2 spectrofluorometer (Molecular Devices, CA).
Cytokine (TNF-α) measurement: The TNF-α levels were measured in cell-free supernatants by enzyme linked immunosorbent assay (ELISA) using a commercially available kit (eBioscience, CA), as per the manufacturer's instructions. Briefly, the microwells of a 96 well plate were coated with diluted purified anti-human TNF-α antibody. The wells were washed, and nonspecific sites were blocked. Diluted recombinant human TNF-α (7.8-500 pg/ml standard) and cell-free-supernatant (1:10) were added to the antibody-coated wells, and the plate was incubated overnight at 4° C. The next day, the plate was washed and incubated with biotin-conjugated anti-human TNF-α antibody followed by avidin-horseradish peroxidase and substrate solution. The reaction was stopped by adding 2 N H2SO4 and read at 450 nm (Molecular Devices, CA).

| Substance | cell cycle progression of SW480 cells [1] | phagocytic uptake of E. coli ([2]; SP-A 2 μM, TLR4-MD2 0.3 μM) | phagocytic uptake of E. coli when SP-A and TLR4-MD2 proteins were added together ([2]; uptake remained increased versus basal) | secretion of TNF-α by DCs in response to E. coli ([3]; 3 hours phagocytosis reaction, protein added alone) | TLR4-MD2 protein-induced TNF-α release against E. coli ([3]; SP-A and TLR4-MD2 added together, 3 hours with E. coli) |
| --- | --- | --- | --- | --- | --- |
| GDFRYSDGTPVNYTNWYRGE [SPA4, GDFRYSDGT PVNYTNWYRGE] | did not affect |  |  |  |  |
| SP-A: native surfactant protein-A purified from bronchioalveolar lavage fluid of a normal healthy adult baboon (MWLCPLALTLTLMAASGAACEVKDVCVGSPGIPGTPGSHGLPGRDGRDGVKGDPGPP; listed as Papio cynocephalus) |  | increased | no additive effect | did not induce the secretion of TNF-α | reduces |
